As a reminder, the EC50 is the concentration that produces a half-maximal response. As a reminder, the CC50 is the concentration at which the toxic effect on the cells reaches its halfway point. One may read the Vss as a proportionality between amount in the body and measured concentration, not a real space. As a reminder, the half-life is how long it takes for the measured level to halve.

The values below come from paper PMC7114212 (Antiviral Research, 2006).

The subject of data set [1] is HIV-1 (IIIB). As to conditions: read-out: HIV-1 (CEM) EC50; cited from earlier work.
The subject of data set [2] is FIPV strain 79-1146. The data set can be described thus: microbe, parasite or virus in culture. The format is cell-based, feline infectious peritonitis virus. The note with it: read-out: FIPV (CRFK) EC50.
The test system of data set [3] is CEM cells. The note with it: cited from earlier work; for IC50: read-out: HIV-1 (CEM) IC50 (50% cytostatic concentration).
Data set [4] relates to Crandell-Reese feline kidney (CRFK) cells.
For data set [5], the system named is Vero cells.
For data set [6] the following is noted: mouse, in vivo, cited from earlier work.
Data set [7] concerns FIPV. The format is cell-based, feline infectious peritonitis virus.

Like-named read-outs stand apart in the source and are kept apart here.

As to “Ristosaminylaglycon of ristomycin [compound 51]”, the values for the EC50 in data set [1] and in data set [2] were more than 50 µM and more than 80 µM, respectively. Besides, the IC50 in data set [3] is more than 100 µM.

For N-Deacyl-A40926 [compound 55], the EC50 in data set [1] was more than 250 µM. In addition, in data set [4], the “FIPV (CRFK) CC50” value is “neither toxic”. Further, in data set [2], the EC50 is more than 80 µM. For the same compound, the “SARS-CoV (Vero) CC50” value in data set [5] is on record as “neither toxic”. Besides, in data set [3], the “HIV-1 (CEM) IC50 (50% cytostatic concentration)” value is recorded as “neither toxic” and the IC50 is more than 500 µM.

As to `CN[C@H](CC(C)C)C(=O)N[C@H]1C(=O)N[C@@H](CC(N)=O)C(=O)N[C@H]2C(=O)N[C@H]3C(=O)N[C@H](C(=O)N[C@H](C(=O)O)c4cc(O)cc(O)c4-c4cc3ccc4O)[C@H](O)c3ccc(c(Cl)c3)Oc3cc2cc(c3O[C@@H]2O[C@H](CO)[C@@H](O)[C@H](O)[C@H]2O[C@H]2C[C@](C)(N)[C@H](O)[C@H](C)O2)Oc2ccc(cc2Cl)[C@H]1O` [compound 1, Vancomycin], the EC50 in data set [1] is more than 250 µM; in data set [2] (Alphacoronavirus 1, CRFK, 96 h) it was more than 80 µM; in data set [2], more than 100 µM. The “FIPV (CRFK) CC50” value in data set [4] is given as “neither toxic”. The “SARS-CoV (Vero) CC50” value in data set [5] was “neither toxic”. Besides, the “HIV-1 (CEM) IC50 (50% cytostatic concentration)” value in data set [3] is on record as “neither toxic”. The IC50 in data set [3] was more than 500 µM.

For Ristomycin [compound 50], the EC50 in data set [1] was more than 250 µM. In addition, the “FIPV (CRFK) CC50” value in data set [4] is recorded as “neither toxic”. Moreover, in data set [2], the EC50 was more than 80 µM. Also, in data set [5], the “SARS-CoV (Vero) CC50” value is “neither toxic”. In data set [3], the “HIV-1 (CEM) IC50 (50% cytostatic concentration)” value was “neither toxic” and the IC50 was more than 500 µM.

Regarding Eremomycin aglycon [compound 71], the EC50 in data set [1] is 50 µM; in data set [2], more than 80 µM. The CC50 in data set [4] and in data set [5] was more than 80 µM in each case. Also, the IC50 in data set [3] is more than 500 µM.

Take De-Cl-eremomycin aglycon [compound 89]: the 50% effective concentration (EC50) in data set [1] was more than 125 µM; in data set [2], more than 100 µM. For the same compound, the CC50 in data set [4] and in data set [5] was more than 100 µM throughout.

For the compound Vancomycin aglycon [compound 65], the EC50 was 65 µM in data set [1] and more than 80 µM in data set [2]. For the same compound, the CC50 in data set [4] and in data set [5] was more than 80 µM in each case. Besides, the IC50 in data set [3] is more than 500 µM.

“adamantyl-2 amide of eremomycin [AN0900]”: in data set [6] (iv), the Vss was 26285 mL/kg and the half-life was 185 min. The tissue penetration entry in data set [6] is recorded as “deep tissue penetration”.

On to “Vancomycin aglycon hexapeptide [compound 69]”, for which the EC50 in data set [1] was not below 125 µM; in data set [2] it was more than 100 µM. Moreover, the CC50 in data set [4] and in data set [5] was more than 100 µM each time.

Turning to Carboxyeremomycin [compound 14], in data set [2], the EC50 is more than 80 µM.

For demannosyl-N-deacylA40926 [compound 57], the EC50 in data set [1] was 115 ± 21 µM. Besides, in data set [4], the “FIPV (CRFK) CC50” value is “neither toxic”. Moreover, the EC50 in data set [2] was more than 80 µM. Moreover, in data set [5], the “SARS-CoV (Vero) CC50” value is “neither toxic”. Further, in data set [3], the “HIV-1 (CEM) IC50 (50% cytostatic concentration)” value is on record as “neither toxic” and the IC50 is more than 500 µM.

On to Eremomycin [compound 7], for which the EC50 in data set [1] is more than 250 µM. Besides, in data set [4], the “FIPV (CRFK) CC50” value was “neither toxic”. Further, in data set [2], the EC50 was more than 100 µM. In addition, the “SARS-CoV (Vero) CC50” value in data set [5] is recorded as “neither toxic”. Moreover, in data set [3], the “HIV-1 (CEM) IC50 (50% cytostatic concentration)” value is given as “neither toxic” and the IC50 was more than 500 µM.

Turning to “Eremomycin aglycon hexapeptide [compound 84]”, the EC50 is 115 ± 21.2 µM in data set [1] and more than 80 µM in data set [2]. In addition, the CC50 in data set [4] and in data set [5] was more than 80 µM in each case. Besides, the IC50 in data set [3] is more than 250 µM.

On to Teicoplanin [compound 52], for which, in data set [4], the “FIPV (CRFK) CC50” value is listed as “neither toxic”. Further, the “delay of addition after FIPV infection that keeps full antiviral activity” value in data set [7] is given as “markedly less delayed”. In data set [2], the EC50 is more than 80 µM. In data set [5], the “SARS-CoV (Vero) CC50” value is on record as “neither toxic”. For the same compound, in data set [3], the “HIV-1 (CEM) IC50 (50% cytostatic concentration)” value is recorded as “neither toxic” and the IC50 was more than 500 µM.
